Assay results reported in patent publication US7238714B2, “Aryl or heteroaryl amide compounds” (Pfizer Japan, Inc., priority 2003, dated 2007).

How the values were obtained:
hEP4 [1] = target: T1, hEP4 (Homo sapiens, UniProt P35408); assay: Human EP receptor cell membrane binding assay ([3H]-PGE2); set-up: expressed in transfected cells; membrane fraction; conditions: [3H]-PGE2 binding to membranes of human EP4/HEK293 transfectant; acidic and hypotonic buffer condition, MME buffer
Text: Human EP Receptor Cell Membrane Binding Assay:
Stable Expression of Human EP1, 2, 3 and 4 Receptors in the Human Embryonic Kidney (HEK293) Cell Line
The cDNA clones of human EP1, 2, 3 and 4 receptors are obtained by polymerase chain reaction (PCR) from […] kidney or heart cDNA libraries (Clontech). Human embryonic kidney cells (HEK 293) are stably transfected with expression vectors for human EP1, 2, 3 and 4 receptors in according to the method described in the article; the journal of biological chemistry vol. 271 No. 39, pp 23642–23645.
Preparation of Membrane Fraction:
The EP1, 2, 3 and 4 transfectant are grown in Dulbecco's modified Eagle's medium containing 10% fetal bovine serum, 50 U/ml penicillin, 50 μg/ml streptomycin and 500 μg/ml G418 (selection medium) at 37° C. in a humidified atmosphere of 5% CO2 in air. For the membrane preparation, cells are harvested with phosphate buffered saline (PBS) and centrifuged at 400×g for 5 min. The pellet is suspended with child (4° C.) PBS containing 1/100 volume of protease inhibitor cocktail (SIGMA) (1 mM (4-(2-aminoethyl)-benzenesulfonyl fluoride (AEBSF)), 0.8 μM Aprotinin, 22 μM Leupeptin, 40 μM Bestatin, 15 μM Pepstatin A and 14 μM E-64). Cells are lysed with ultrasonic cell disrupter for 60-sec sonication. Then cell mixtures are centrifuged at 1,000×g for 10 minutes. The supernatant μs centrifuged at 160,000×g for 30 minutes at 4° C. The pellet is resuspended in assay buffer (10 mM 2-morpholinoeth-anesulfonic acid (MES)-KOH, 1 mM etylenediamine tetra-acetic acid (EDTA), 10 mM MgCl2, pH 6.0), and protein concentration is determined by Bradford method (Bio-Rad assay). This membrane preparation is stored at −80° C. freezer until use for binding assay.
[^3H]-PGE2 membrane binding assays are performed in the reaction mixture of 10 mM MES/KOH (pH6.0), 10 mM MgCl2, 1 mM EDTA, 1 nM [^3H]-PGE2 (Amersham TRK431, 164 Ci/mmol), 2˜10 μg of protein from membrane fraction (human EP1, 2, 3 and 4/HEK293 transfectant) and test compound (total volume is 0.1 ml in 96 well polypropylene plate). Incubation is conducted for 60 min at room temperature prior to separation of the bound and free radioligand by rapid filtration through glass fiber filters (Printed Filtermat B, 1205-404, glass fiber, double thickness, size 102×258 mm, Wallac inc., presoaked in 0.2% polyethylenimine). Filters are washed with assay buffer and the residual [^3H]-PGE2 bound to the filter is determined by liquid scintillation counter (1205 Betaplate™). Specific binding is defined as the difference between total binding and nonspecific binding which is determined in the presence of 10 μM PGE2.

hEP4 [2] = target: T1, hEP4; assay: cAMP assay in human EP4 transfectant (functional assay); format: cell-based; set-up: expressed in transfected cells; host or cells: HEK293 (hEP4 cells), selected with geneticin; conditions: vs 1 nM PGE2; for IC50: cAMP in HEK293 cells expressing human EP4
Description: cAMP Assay in Human EP4 Transfectant
HEK293 cells expressing human EP4 receptors (hEP4 cells) are maintained in DMEM containing 10% FBS and 500 μg/ml geneticin. For harvesting hEP4 cells, culture medium is aspirated and cells in 75 cm^2 flask are washed with 10 ml of phosphate buffered saline (PBS). Another 10 ml of PBS is added to the cells and incubated for 20 min at room temperature. Human EP4 cells are harvested by pipetting and centrifuged at 300×g for 4 min. Cells are resuspended in DMEM without neutral red at a density of 7×10^5 cells/ml containing 0.2 mM IBMX (PDE inhibitor), 1 nM PGE2 and test compounds in PCR-tubes, and incubated at 37° C. for 10 min. The reaction is stopped by heating at 100° C. for 10 min with thermal cycler. Concentration of cAMP in reaction mixtures is determined with SPA cAMP Kit (Amersham) or cAMP Screen™ (Applied Biosystems) according to the manufacture's instruction. • Reference: Eur. J. Pharmacol. 340 (1997) 227–241

T1 sequence (P35408 whole entry): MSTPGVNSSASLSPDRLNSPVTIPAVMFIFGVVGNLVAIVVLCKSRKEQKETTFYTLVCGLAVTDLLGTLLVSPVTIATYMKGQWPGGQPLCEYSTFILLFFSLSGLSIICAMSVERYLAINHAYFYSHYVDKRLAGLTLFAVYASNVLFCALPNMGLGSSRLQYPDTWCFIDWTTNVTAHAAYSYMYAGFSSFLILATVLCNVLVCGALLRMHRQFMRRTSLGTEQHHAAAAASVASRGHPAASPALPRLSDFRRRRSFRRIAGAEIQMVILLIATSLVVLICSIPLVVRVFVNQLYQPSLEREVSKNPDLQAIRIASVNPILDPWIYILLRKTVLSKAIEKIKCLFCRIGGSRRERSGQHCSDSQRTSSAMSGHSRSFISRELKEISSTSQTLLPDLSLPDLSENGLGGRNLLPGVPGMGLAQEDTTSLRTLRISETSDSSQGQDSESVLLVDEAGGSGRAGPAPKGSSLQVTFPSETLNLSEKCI

Row | Ki (hEP4 [1]) | IC50 (hEP4 [2]) | inhibition at 5 µM (hEP4 [2]; @ 5000 nM, read-out: functional assay human EP4 % Inh.) | SMILES
1 | 0.02 µM | 820 nM |  | O=C(O)c1ccc(CNC(=O)c2cc(C(F)(F)F)cnc2Oc2ccc(F)cc2)cc1 [Example 56, 4-[({[2-(4-FLUOROPHENOXY)-5-(TRIFLUOROMETHYL)PYRIDIN-3-YL]CARBONYL}AMINO)METHYL]BENZOIC ACID]
2 | 0.092 µM | 1800 nM | 75% | N#Cc1cnc(Oc2ccc(F)cc2)c(C(=O)NCc2ccc(C(=O)O)cc2)c1 [Example 57, 4-[({[5-CYANO-2-(4-FLUOROPHENOXY)PYRIDIN-3-YL]CARBONYL}AMINO)METHYL]BENZOIC ACID]
3 | 0.001 µM | 19 nM |  | C[C@H](NC(=O)c1cc(Cl)cnc1Oc1cccc(F)c1)c1ccc(C(=O)O)cc1 [Example 48, 4-[(1S)-1-({[5-CHLORO-2-(3-FLUOROPHENOXY)PYRIDIN-3-YL]CARBONYL}AMINO)ETHYL]BENZOIC ACID]
4 | 0.0007 µM | 3.6 nM |  | C[C@H](NC(=O)c1cc(Cl)ccc1Cc1cccc(Cl)c1)c1ccc(C(=O)O)cc1 [Example 148, 4-((1S)-1-{[5-CHLORO-2-(3-CHLOROBENZYL)BENZOYL]AMINO}ETHYL)BENZOIC ACID]
5 | 0.004 µM | 140 nM |  | O=C(NCc1ccc(-c2nn[nH]n2)cc1)c1cc(Cl)cnc1Oc1ccc(F)cc1 [Example 74, 5-CHLORO-2-(4-FLUOROPHENOXY)-N-[4-(2H-TETRAZOL-5-YL)BENZYL]NICOTINAMIDE]
6 | 0.0018 µM | 100 nM |  | O=C(NCc1ccc(-c2nn[nH]n2)cc1)c1cc(Cl)ccc1Oc1ccc(F)cc1 [Example 76, 5-CHLORO-2-(4-FLUOROPHENOXY)-N-[4-(2H-TETRAZOL-5-YL)BENZYL]BENZAMIDE]
7 | 0.0007 µM | 21 nM |  | C[C@H](NC(=O)c1cc(Cl)cnc1Oc1cccc(F)c1)c1ccc(C(=O)NS(=O)(=O)c2cccc(Cl)c2)cc1 [Example 79, 5-CHLORO-N-{(1S)-1-[4-({[(3-CHLOROPHENYL)SULFONYL]AMINO}CARBONYL)PHENYL]ETHYL}-2-(3-FLUOROPHENOXY)NICOTINAMIDE]
8 | 0.0003 µM | 28 nM |  | C[C@H](NC(=O)c1cc(Cl)cnc1Oc1cccc(-c2nccs2)c1)c1ccc(C(=O)O)cc1 [Example 45, 4-{(1S)-[({5-CHLORO-2-[3-(1,3-THIAZOL-2-YL)PHENOXY]PYRIDIN-3-YL}CARBONYL)AMINO]ETHYL}BENZOIC ACID]
9 | 0.0007 µM | 20 nM |  | C[C@H](NC(=O)c1cc(Cl)cnc1Oc1ccc(F)c(F)c1)c1ccc(C(=O)O)cc1 [Example 55, 4-[(1S)-1-({[5-CHLORO-2-(3,4-DIFLUOROPHENOXY)PYRIDIN-3-YL]CARBONYL}AMINO)ETHYL]BENZOIC ACID]
10 | 0.0024 µM | 43 nM |  | C[C@H](NC(=O)c1cc(Cl)ccc1Oc1ccc(F)cc1)c1ccc(C(=O)O)cc1 [Example 68, 4-((1S)-1-{[5-CHLORO-2-(4-FLUOROPHENOXY)BENZOYL]AMINO}ETHYL)BENZOIC ACID]
